# Measurements published in patent publication US11993574B2, “Pyrazole and imidazole compounds for inhibition of IL-17 and RORgamma” (REATA PHARMACEUTICALS, INC., priority 2018, dated 2024).
# How the values were obtained:
# Type in all cases: cell-based
# [1] = target: T1, Human RAR-related Orphan Receptor Gamma (RORγ) (Homo sapiens, UniProt P51449); experiment: RORγ assay (GAL4-RORγ hybrid luciferase reporter, Indigo Biosciences); conditions: inverse-agonist activity, GAL4-RORγ reporter cells, 23 hours
# T1 sequence (P51449 269-508 limits assumed): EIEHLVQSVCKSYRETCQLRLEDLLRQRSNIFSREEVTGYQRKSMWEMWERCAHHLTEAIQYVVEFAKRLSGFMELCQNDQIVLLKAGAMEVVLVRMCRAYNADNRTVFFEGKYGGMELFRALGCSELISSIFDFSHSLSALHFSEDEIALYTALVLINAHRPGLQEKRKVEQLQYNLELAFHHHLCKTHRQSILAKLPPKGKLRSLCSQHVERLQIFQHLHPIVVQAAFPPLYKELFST
# Summary of the method: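 […]engineered human reporter cell line expressing GAL4-DBD/RORγ-LBD hybrid with GAL4-UAS luciferase; constitutive activity measured as inverse agonism. Cells treated with compound (7.8-2000 nM) for 23 h at 37 °C; luminescence normalized to DMSO, IC50 by variable-slope fit, with parallel viability readout to flag non-specific inhibition.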
# [2] = test system: Nrf2 transcription factor; experiment: AREc32 luciferase reporter assay; conditions: Homo sapiens; AREc32 cells, 19 hours; concentration required to increase GST ARE luciferase reporter activity by 2-fold; read-out: NRF2 ARE 2-Fold (EC2×)
# Summary of the method: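 AREc32 cells (MCF-7 with firefly luciferase under eight rat GSTA2 ARE copies) treated 19 h with compound (0.4-200 nM or 3.9-2000 nM) in triplicate. Luminescence normalized to DMSO as fold-induction, capped at 50-fold. EC2× = concentration giving 2-fold reporter increase, interpolated from variable-slope fit.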
# [3] = test system: IL-17A; experiment: IL-17 release from differentiated primary human T-cells (IL-17A HTRF assay); conditions: primary human CD4+ T cells differentiated into Th17 cells, 45-hour incubation, IL-17A in supernatant; read-out: hIL17 IC50
# Summary of the method: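 Primary human CD4+ T cells (~2×10^5/well) given compound (2–500 or 4–1000 nM, 0.1% DMSO), CD3/CD28-activated and Th17-differentiated (TGF-β, IL-6, IL-23, IL-1β) for 45 h at 37° C. Supernatant IL-17A by HTRF against standard curve, normalized to vehicle; IC50 by variable-slope regression, with parallel CyQuant viability.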
Structure (SMILES),IC50 [1],IC50 [3],EC (2-fold) [2]
C[C@H]1C(=O)C(C#N)=C[C@@]2(C)c3nc(-c4ccc(Cl)c(Cl)c4)n(-c4cnn(C)c4)c3CC[C@H]12 [T158],124 nM,240 nM,1.09 µM
C[C@H]1C(=O)C(C#N)=C[C@@]2(C)c3nc(-c4cccc(-c5ccncc5)c4)n(-c4cnn(C)c4)c3CC[C@H]12 [T159],201 nM,273 nM,1.08 µM
C[C@H]1C(=O)C(C#N)=C[C@@]2(C)c3nc(-c4ccnc(N5CCOCC5)c4)n(-c4cnn(C)c4)c3CC[C@H]12 [T160],562 nM,468 nM,> 2 µM
CC(C)c1ccc(-c2nc3c(n2C(C)C)CC[C@@H]2[C@@H](C)C(=O)C(C#N)=C[C@@]32C)cc1 [T162],141 nM,137 nM,1.12 µM
CC(C)c1ccc(-c2nc3c([nH]2)CC[C@@H]2[C@@H](C)C(=O)C(C#N)=C[C@@]32C)cc1 [T173],1970 nM,119 nM,0.884 µM
CC(=O)n1c(-c2ccc(C(C)C)cc2)nc2c1CC[C@@H]1[C@@H](C)C(=O)C(C#N)=C[C@@]21C [T174],1600 nM,368 nM,0.923 µM
Cc1cc(-c2ccc(-n3nc(-c4ccncn4)c4c3[C@]3(C)C=C(C#N)C(=O)[C@H](C)[C@H]3CC4)cc2)cnn1 [T176],120 nM,129 nM,0.979 µM
Cc1cc(-c2ccc(-n3nc(-c4ccc(F)cc4)c4c3[C@]3(C)C=C(C#N)C(=O)[C@H](C)[C@H]3CC4)cc2)cnn1 [T177],52 nM,9 nM,0.271 µM
C[C@H]1C(=O)C(C#N)=C[C@@]2(C)c3c(c(-c4ccc(F)cc4)nn3-c3ccc(-c4cccnn4)cc3)CC[C@H]12 [T178],64 nM,31 nM,0.342 µM
Cc1cnnc(-c2ccc(-n3nc(-c4ccc(F)cc4)c4c3[C@]3(C)C=C(C#N)C(=O)[C@H](C)[C@H]3CC4)cc2)c1 [T179],37 nM,45 nM,0.232 µM
C[C@H]1C(=O)C(C#N)=C[C@@]2(C)c3c(c(-c4cccnc4)nn3-c3ccc(-c4ccnc(CF)c4)cc3)CC[C@H]12 [T180],55 nM,49 nM,0.308 µM
C[C@H]1C(=O)C(C#N)=C[C@@]2(C)c3c(c(-c4ccc(F)cc4)nn3-c3ccc(-c4ccnc(CF)c4)cc3)CC[C@H]12 [T181],60 nM,24 nM,0.25 µM
Cc1nc(-c2ccc(-n3nc(-c4ccc(F)cc4)c4c3[C@]3(C)C=C(C#N)C(=O)[C@H](C)[C@H]3CC4)cc2)no1 [T182],96 nM,32 nM,0.249 µM
C[C@H]1C(=O)C(C#N)=C[C@@]2(C)c3c(c(-c4ccc(F)cc4)nn3-c3ccc(-c4ncon4)cc3)CC[C@H]12 [T183],113 nM,68 nM,0.526 µM
Cc1nc(-c2ccc(-n3nc(-c4cccnc4)c4c3[C@]3(C)C=C(C#N)C(=O)[C@H](C)[C@H]3CC4)cc2)no1 [T184],116 nM,76 nM,0.398 µM

# Further lines, with some results ahead:
IC50 [1],IC50 [3],Structure (SMILES),EC (2-fold) [2]
150 nM,113 nM,CC(C)c1ccc(-c2nc3c(n2C2CC2)CC[C@@H]2[C@@H](C)C(=O)C(C#N)=C[C@@]32C)cc1 [T161],1.02 µM
152 nM,255 nM,CC(C)c1ccc(-c2nc3c(n2C)CC[C@@H]2[C@@H](C)C(=O)C(C#N)=C[C@@]32C)cc1 [T163],1.13 µM
237 nM,158 nM,COCCn1c(-c2ccc(C(C)C)cc2)nc2c1CC[C@@H]1[C@@H](C)C(=O)C(C#N)=C[C@@]21C [T164],> 2 µM
471 nM,211 nM,CC(C)c1ccc(-c2nc3c(n2CCOCc2ccccc2)CC[C@@H]2[C@@H](C)C(=O)C(C#N)=C[C@@]32C)cc1 [T165],> 2 µM
228 nM,63 nM,CC(C)c1ccc(-c2nc3c(n2Cc2ccccc2)CC[C@@H]2[C@@H](C)C(=O)C(C#N)=C[C@@]32C)cc1 [T166],1.68 µM
245 nM,53 nM,CC(C)c1ccc(-c2nc3c(n2Cc2ccc(F)cc2)CC[C@@H]2[C@@H](C)C(=O)C(C#N)=C[C@@]32C)cc1 [T167],1.11 µM
296 nM,43 nM,CC(C)c1ccc(-c2nc3c(n2Cc2ccccc2F)CC[C@@H]2[C@@H](C)C(=O)C(C#N)=C[C@@]32C)cc1 [T168],1.29 µM
371 nM,33 nM,CC(C)c1ccc(-c2nc3c(n2Cc2ccc(Cl)cc2)CC[C@@H]2[C@@H](C)C(=O)C(C#N)=C[C@@]32C)cc1 [T169],1.01 µM
103 nM,72 nM,CC(C)c1ccc(-c2nc3c(n2Cc2ccccn2)CC[C@@H]2[C@@H](C)C(=O)C(C#N)=C[C@@]32C)cc1 [T170],0.602 µM
260 nM,157 nM,CC(C)c1ccc(-c2nc3c(n2Cc2ccncc2)CC[C@@H]2[C@@H](C)C(=O)C(C#N)=C[C@@]32C)cc1 [T171],1.01 µM
178 nM,> 500 nM,CC(C)c1ccc(-c2nc3c(n2CCO)CC[C@@H]2[C@@H](C)C(=O)C(C#N)=C[C@@]32C)cc1 [T172],> 2 µM
